Publication PMC10251509, “Ultrafast Fragment Screening Using Photo-Hyperpolarized (CIDNP) NMR” (Journal of the American Chemical Society, 2023)

Biological target: T1, PIN1 (Homo sapiens, UniProt Q13526)
T1 construct: polyhistidine (N); made in house; host or cells: Escherichia coli BL21 (DE3)
Assay: photo-CIDNP 1D 1H NMR fragment screening (polarization ratio) against PIN1
Assay type: binding
Description: The combination of these two effects yields the quenching of the photo-CIDNP hyperpolarized signal in the case of binding to a protein, as L decreases and R1,eff increases.
It is also overexpressed in many human cancer cells.[16] It is thus regarded as a potential drug target, and several studies attempted to discover hits and unravel the structure–activity relationship.[3],[4],[36] […] The NMR experiments were performed using single-scan NMR experiments, comprising light irradiation, an excitation pulse, and a water suppression scheme, as described previously.[13] Although each experiment was recorded in only 2 s, the limiting step was the sample tube exchange. Indeed, the optic fiber needed to be plugged into the tubes while changing the samples, which required ca. 15 s per tube using a house-made connector tightening the tube and the optic fiber with O-rings (Figure S2). Removing the sample from and bringing the new sample into the spectrometer requires an additional 30 s, and a shimming step must be performed for each new tube (30 s).
As proposed in the theoretical part, the photo-CIDNP traces were recorded in the presence and absence of PIN1. The peak intensity and chemical shifts were analyzed pairwise to identify the hits. […] The reference apo-PIN1 sample was spiked with 1.9 μL of DMSO to compensate for the DMSO that is introduced upon fragment addition, as the fragments are stored in stock solutions of 5 mM 90% DMSO-d6 and 10% D2O.
The laser used was a Thorlabs L450P1600MM, a diode laser emitting at 450 nm. The laser light was coupled (using appropriate coupling optics) into an optical fiber (Thorlabs, FG950UEC) of length 10 m and a diameter of 0.95 mm. The end of the fiber was inserted into the sample solution inside the 3 mm NMR glass tube to a depth of about 5 mm above the NMR coil region. The library QC and the control binding experiments for PIN1 were measured on a Bruker Avance III HD 600 MHz spectrometer equipped with a cryoprobe and SampleJet.

T1 sequence (Q13526 whole entry): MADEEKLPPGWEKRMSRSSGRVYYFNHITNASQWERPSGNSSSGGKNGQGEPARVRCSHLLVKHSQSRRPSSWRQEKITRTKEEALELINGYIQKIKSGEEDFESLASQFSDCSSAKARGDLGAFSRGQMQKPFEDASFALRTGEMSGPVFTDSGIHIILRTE

polarization ratio (50 μM ligand, ±25 μM PIN1, 20 μM fluorescein, 0 = total binding, 1 = no interaction, hit <0.8): 0.38
polarization ratio (low concentration: 20 μM ligand (compound 1: 5 μM), ±2 μM PIN1, single scan): 0.73
SMILES: Cc1cccc(-c2nc(C)c(C(=O)O)[nH]2)c1 [Compound 13, reference compound]
